Laboratory results taken from patent US20240309015A1, “Methods for the Treatment of Fibrotic Disease” (SHY Therapeutics, LLC, priority 2021, published 2024).

Columns and labels:
[1] = tested on: Smad2/3 phosphorylation; assay: Phospho-Smad2/3 Inhibition Assay in PANC-1; type: cell-based; conditions: Homo sapiens; 10 μM compound, 3 h; TGF-b1 stimulated PANC-1; western blot; read-out: % inh of Smad2/3 phosphorylation in PANC-1
Experimental: Cell lines: Human tumor-derived pancreatic cancer cell line Panc-1 and mouse muscle myoblast C2C12 were purchased from American Type Culture Collection and grown in complete DMEM-High Glucose, supplemented with penicillin (100 U/mL), streptomycin (100 μg/mL), and 10% heat-inactivated FBS at 37° C. in a humidified incubator with 5% CO2.
Method: Cells were plated at 350000 cells/well density in a 12-well plate, allowed 3 hours to adhere to the plate, then starved in the appropriate medium in the presence of 0.5% FBS overnight. The small molecules to be tested were added to the cells in the final concentration of 10 μM in the presence of 0.3% DMSO for 3 hours incubation at 37° C. For IC50 value determination, serial dilutions of compounds were added to cells under the same conditions. Next, Panc-1 cells were stimulated with 10 ng/ml TGF-b1 for 1 hour, and C2C12 cells were stimulated with 10 ng/ml TGF-b1 for 20 minutes (recombinant human TGF-b1, R&D Systems). After stimulation cells were lysed with lysis buffer containing 1% Triton X-100, EDTA, and Halt™ Protease & Phosphatase Inhibitor Cocktail (Thermo Scientific). Protein concentration was assessed by BCA protein assay (Thermo Scientific). Phosphorylation level of Smad2/Smad3 was determined by western blot.
Western blot protocol: Equal amounts of protein (15-50 μg) were separated by SDS-PAGE and transferred to nitrocellulose membranes (Invitrogen by Thermo Fisher Scientific). The membrane was stained with Ponceau S Stain (Boston BioProducts) to verify uniform protein loading. Membranes were blocked with 10% milk and phosphorylation levels of Smad2/Smad3 were assessed by incubating overnight at 4° C. with the following antibodies: Phospho-Smad2 (Ser465/467) and Phosph-Smad3 (Ser423/425), both from Cell Signaling Technology. Then the membranes were incubated with HRP-conjugated secondary antibody (Jackson Immunoresearch, West Grove, PA). Bands were incubated in Amersham ECL Prime Western Blotting Detection Reagent (GE Healthcare) and visualized using the ChemiDoc MP imaging system (Bio-Rad).

[2] = tested on: IL-6; assay: Mouse IL6 Quantification Assay (LPS-stimulated RAW 264.7); type: cell-based; set-up: dose or concentration left out as unconfirmed; conditions: RAW264.7, ELISA, read-out: IL-6: % inh.
[3] = tested on: TNFα; assay: Mouse TNF Alpha Quantification Assay (LPS-stimulated RAW 264.7); type: cell-based; set-up: dose or concentration left out as unconfirmed; conditions: RAW264.7, ELISA, read-out: TNFα: % inh.
[4] = tested on: KRas wild type; assay: Ras GTP Binding Domain Inhibition Assay, KRas wild type; conditions: at 20 μM; for KRas wild type + SOS: % inh.: with SOS; for KRas wild type: % inh.: without SOS
Summary of the method: (§1)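 Compounds were tested at 20 μM final, or as dilution series for IC50, against nickel-plate-captured His-tagged GTPase proteins for 3 h at room temperature. Sos exchange factor could be present for the last hour. Labelled GTP (100 nM Cy3 or Cy5) was then bound for 45 min, wells were washed, and retained fluorescence was measured.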

[5] = tested on: KRas G12D mutant; assay: Ras GTP Binding Domain Inhibition Assay, KRas G12D mutant; conditions: at 20 μM; for KRas G12D mutant + SOS: % inh.: with SOS; for KRas G12D mutant: % inh.: without SOS
Summary of the method: as §1

[6] = tested on: KRas G12C mutant; assay: Ras GTP Binding Domain Inhibition Assay, KRas G12C mutant; conditions: at 20 μM; for KRas G12C mutant + SOS: % inh.: with SOS; for KRas G12C mutant: % inh.: without SOS
Summary of the method: as §1

[7] = tested on: Rho-A; assay: Ras GTP Binding Domain Inhibition Assay, Rho-A; conditions: at 20 μM; without SOS
Summary of the method: as §1

Row | SMILES | KRas wild type + SOS: % inh. [4] | KRas wild type: % inh. [4] | KRas G12D mutant + SOS: % inh. ([5]; Table 7) | KRas G12D mutant + SOS: % inh. ([5]; Table 8) | KRas G12D mutant: % inh. ([5]; Table 7) | KRas G12D mutant: % inh. ([5]; Table 8) | KRas G12C mutant + SOS: % inh. [6] | KRas G12C mutant: % inh. [6] | Rho-A: % inh. [7] | inhibition at 10 µM [1] [%] | inhibition [2] [%] | inhibition [3] [%]
1 | COc1cccc(-c2sc3nc(-c4nccn4C)nc(N[C@@H]4CC[C@@H](OC)C4)c3c2-c2ccccc2)c1F (racemic) [Compound 41, 6-(2-Fluoro-3-methoxyphenyl)-N-((1R,3R)-3-methoxycyclopentyl)-2-(1-methyl-1H-imidazol-2-yl)-5-phenylthieno[2,3-d]pyrimidin-4-amine] | D (D = 76-100% inhibition) | B (B = 26-45% inhibition) | C (C = 46-75% inhibition) | C (C = 46-75% inhibition) | A (A = 1-25% inhibition) | A (A = 1-25% inhibition) | D (D = 76-100% inhibition) | B (B = 26-45% inhibition) | 0 (0 = 0% inhibition) | 76 to 100 | 76 to 100 | 76 to 100
2 | COCCCn1c(-c2nccn2C)nc2sc(-c3ccn(C(C)C)n3)c(-c3ccccc3)c2c1=O [Compound 36, 6-(1-Isopropyl-1H-pyrazol-3-yl)-3-(3-methoxypropyl)-2-(1-methyl-1H-imidazol-2-yl)-5-phenylthieno[2,3-d]pyrimidin-4(3H)-one] | A (A = 1-25% inhibition) | A (A = 1-25% inhibition) | 0 (0 = 0% inhibition) | 0 (0 = 0% inhibition) | 0 (0 = 0% inhibition) | 0 (0 = 0% inhibition) | A (A = 1-25% inhibition) | 0 (0 = 0% inhibition) | 0 (0 = 0% inhibition) | 0 | 46 to 75 | 0
3 | COCCn1ccc(-c2sc3nc(-c4nccn4C)nc(NC[C@H]4CC[C@H]4COC)c3c2C)n1 (racemic) [Compound 38, rac-6-(1-(2-Methoxyethyl)-1H-pyrazol-3-yl)-N-(((1S,2R)-2-(methoxymethyl)cyclobutyl)methyl)-5-methyl-2-(1-methyl-1H-imidazol-2-yl)thieno[2,3-d]pyrimidin-4-amine] | D (D = 76-100% inhibition) | C (C = 46-75% inhibition) | D (D = 76-100% inhibition) | D (D = 76-100% inhibition) | B (B = 26-45% inhibition) | B (B = 26-45% inhibition) | D (D = 76-100% inhibition) | C (C = 46-75% inhibition) | B (B = 26-45% inhibition) | 46 to 75 | 76 to 100 | 76 to 100

The next lines start with results.

Row | KRas wild type + SOS: % inh. [4] | KRas wild type: % inh. [4] | KRas G12D mutant + SOS: % inh. ([5]; Table 7) | KRas G12D mutant + SOS: % inh. ([5]; Table 8) | KRas G12D mutant: % inh. ([5]; Table 7) | KRas G12D mutant: % inh. ([5]; Table 8) | KRas G12C mutant + SOS: % inh. [6] | KRas G12C mutant: % inh. [6] | Rho-A: % inh. [7] | SMILES | inhibition at 10 µM [1] [%] | inhibition [2] [%] | inhibition [3] [%]
4 | D (D = 76-100% inhibition) | D (D = 76-100% inhibition) | C (C = 46-75% inhibition) | C (C = 46-75% inhibition) | B (B = 26-45% inhibition) | B (B = 26-45% inhibition) | D (D = 76-100% inhibition) | C (C = 46-75% inhibition) | D (D = 76-100% inhibition) | COc1cc(Nc2nc(-c3nccn3C)nc3sc(-c4ccn(C(C)C)n4)c(C)c23)ncn1 [Compound 19, 6-(1-Isopropyl-1H-pyrazol-3-yl)-N-(6-methoxypyrimidin-4-yl)-5-methyl-2-(1-methyl-1H-imidazol-2-yl)thieno[2,3-d]pyrimidin-4-amine] | 76 to 100 | 76 to 100 | 76 to 100
5 | A (A = 1-25% inhibition) | A (A = 1-25% inhibition) | 0 (0 = 0% inhibition) | 0 (0 = 0% inhibition) | A (A = 1-25% inhibition) | A (A = 1-25% inhibition) | A (A = 1-25% inhibition) | 0 (0 = 0% inhibition) | 0 (0 = 0% inhibition) | COc1cc(Cn2c(-c3nccn3C)nc3sc(-c4ccn(C(C)C)n4)c(C)c3c2=O)ncn1 [Compound 35, 6-(1-Isopropyl-1H-pyrazol-3-yl)-3-((6-methoxypyrimidin-4-yl)methyl)-5-methyl-2-(1-methyl-1H-imidazol-2-yl)thieno[2,3-d]pyrimidin-4(3H)-one] | 0 | 1 to 25 | 1 to 25
6 | 0 (0 = 0% inhibition) | A (A = 1-25% inhibition) | 0 (0 = 0% inhibition) | 0 (0 = 0% inhibition) | 0 (0 = 0% inhibition) | 0 (0 = 0% inhibition) | 0 (0 = 0% inhibition) | A (A = 1-25% inhibition) | 0 (0 = 0% inhibition) | COCCOc1nc(-c2nccn2C)nc2sc(-c3ccn(C(C)C)n3)c(C)c12 [Compound 30, 6-(1-Isopropyl-1H-pyrazol-3-yl)-4-(2-methoxyethoxy)-5-methyl-2-(1-methyl-1H-imidazol-2-yl)thieno[2,3-d]pyrimidine] | 0 | 0 | 0
7 | C (C = 46-75% inhibition) | B (B = 26-45% inhibition) | C (C = 46-75% inhibition) | C (C = 46-75% inhibition) | C (C = 46-75% inhibition) | C (C = 46-75% inhibition) | D (D = 76-100% inhibition) | C (C = 46-75% inhibition) | C (C = 46-75% inhibition) | COc1cccc(Nc2nc(-c3nccn3C)nc3sc(-c4ccn(C(C)C)n4)c(C)c23)c1 [Compound 17, 6-(1-Isopropyl-1H-pyrazol-3-yl)-N-(3-methoxyphenyl)-5-methyl-2-(1-methyl-1H-imidazol-2-yl)thieno[2,3-d]pyrimidin-4-amine] | 46 to 75 | 76 to 100 | 76 to 100
8 | A (A = 1-25% inhibition) | A (A = 1-25% inhibition) | 0 (0 = 0% inhibition) | 0 (0 = 0% inhibition) | 0 (0 = 0% inhibition) | 0 (0 = 0% inhibition) | 0 (0 = 0% inhibition) | 0 (0 = 0% inhibition) | 0 (0 = 0% inhibition) | COCCCn1c(-c2nccn2C)nc2sc(-c3ccn(C(C)C)n3)c(C)c2c1=O [Compound 31, 6-(1-Isopropyl-1H-pyrazol-3-yl)-3-(3-methoxypropyl)-5-methyl-2-(1-methyl-1H-imidazol-2-yl)thieno[2,3-d]pyrimidin-4(3H)-one] | 0 | 46 to 75 | 0
